Laboratory results: patent US20070232492A1, “Herbicidal Composition” (Ishihara Sangyo Kaisha, LTD., priority 2004, published 2007)

Experiments:
Format in all cases: in vivo
[1] = system: Japanese bulrush (Scirpus juncoides); test: Growth inhibition of Japanese bulrush in paddy soil pots, application under submerged condition, visual rating and Colby expected value
Outline: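 Scirpus juncoides was sown in paddy soil pots flooded to 3.5 cm and treated under submerged conditions at the 2–3 leaf stage with water-diluted formulations, alone or in combination. Growth inhibition was rated visually 10 or 19 days after application (0% untreated to 100% complete kill). Expected combination values come from Colby's formula.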

[2] = Growth inhibition of mixed broadleaf paddy weeds in paddy soil pots, application under submerged condition, visual rating and Colby expected value; conditions: mixed broadleaf paddy weeds, soil, 528 h, read-out: Growth inhibition rate (%) Observed
Excerpt: (§1) When the herbicidal activity in a case where two active ingredients are combined, is larger than the simple sum of the respective herbicidal activities of the two active ingredients (the expected activity), it is called a synergistic effect. The activity expected by the combination of two active ingredients can be calculated as follows (Colby S. R., “Weed”, vol. 15, p. 20-22, 1967). E=p+q−(p×q÷100) where p: growth inhibition rate when treated with x (g/a) of herbicide X,
(§2) q: growth inhibition rate when treated with y (g/a) of herbicide Y,
(§3) E: growth inhibition rate expected when treated with x (g/a) of herbicide X and y (g/a) of herbicide Y.
(§4) Namely, when the actual growth inhibition rate (observed value) is larger than the growth inhibition rate by the above calculation (expected value), the activity by the combination can be regarded as showing a synergistic effect.
(§5) Growth inhibition rate (%)=0% (equivalent to the non-treated area) to 100% (complete kill)
(§6) Paddy field soil was put into a 1/1,700 are pot, and mixed seeds of false pimpernel (Lindernia pyxidaria), abunome (Dopatrium junceum), long stem waterwort (Elatine triandra SCHK.) and toothcup (Rotala india) were sown and left to stand under an irrigated condition with a water depth of 3.5 cm. When false pimpernel reached one leaf-pair stage, wettable powders of compound A2 and compound (B1.2) were, respectively, diluted with water and applied under submerged condition so that the active ingredients became the prescribed amounts, respectively. The state of growth was visually observed 21 days after application, and evaluation and calculation were carried out in the same manner as in the above Test Example 1.
(§7) Paddy field soil was put into a 1/1,700 are pot, and mixed seeds of false pimpernel (Lindernia pyxidaria), abunome (Dopatrium junceum), long stem waterwort (Elatine triandra SCHK.) and toothcup (Rotala india) were sown and left to stand under an irrigated condition with a water depth of 3.5 cm. When false pimpernel reached two leaf-pair stage, a wettable powder of compound A2 and an emulsifiable concentrate of compound (B8.1) were, respectively, diluted with water and applied under submerged condition so that the active ingredients became the prescribed amounts, respectively. The state of growth was visually observed 22 days after application, and evaluation and calculation were carried out in the same manner as in the above Test Example 1.

[3] = system: false pimpernel (Lindernia pyxidaria), abunome (Dopatrium junceum), long stem waterwort (Elatine triandra SCHK.) and toothcup (Rotala india); test: as above; conditions: 0.22 g/a
Excerpt: as §1, §2, §3, §4, §5, §6, §7

[4] = system: rice (Oryza sativa var. Nihonbare); test: Growth inhibition (phytotoxicity) of transplanted rice by compound A2 with or without compound D, application under submerged condition, visual rating 7 and 21 days after application; conditions: Compound A2 60 g/ha, Compound D not applied, applied 5 days after implantation
Excerpt: as §5
Paddy field soil was put into a 1/500,000 hectare pot, harrowed and irrigated with a depth of 3 cm. On the next day, rice (Oryza sativa var. Nihonbare) at 2 leaf stage was implanted with a depth of 3 cm. A wettable powder of compound A2 and a wettable powder of compound D were, respectively, diluted with water and applied under submerged condition 5 days after implantation so that the active ingredients became the prescribed amounts, respectively. The state of growth of rice was visually observed 7 days and 21 days after application, and the growth inhibition rate (%) was evaluated in the same is manner as in the above Test Example 1.

[5] = system: barnyardgrass (Echinochloa oryzicola vasing); test: Growth inhibition of barnyardgrass in paddy soil pots, foliar application with a small sprayer, visual rating and Colby expected value; conditions: 3.0 to 3.3 leaf stage, 21 days after application
Excerpt: as §1, §2, §3, §4, §5
Paddy field soil was put into a 1/10,000 are pot, and seeds of barnyardgrass (Echinochloa oryzicola vasing) were sown and left to stand under an irrigated condition with a water depth of 3.5 cm. When barnyardgrass reached 3.0 to 3.3 leaf stage, a wettable powder of compound A2 and a water-based suspension of compound (B11.1) were, respectively, diluted with water in an amount of 1,000 liter/ha, followed by foliar application with a small sprayer. The state of growth was visually observed 21 days after application, and evaluation and calculation were carried out in the same manner as in the above Test Example 1.

[6] = Schoenoplectiella juncoides, soil, 696 h, read-out: Growth inhibition rate (%) Observed

Structure (SMILES): CCCOCCN(C(=O)CCl)c1c(CC)cccc1CC [Compound (B3.1), pretilachlor]
- inhibition at 50 g/ha ([1]; Schoenoplectiella juncoides, soil, 240 h, 0.5 g/a, 2.3 to 2.6 leaf stage, 10 days after application, read-out: Growth inhibition rate (%) Observed): 3%
- inhibition at 100 g/ha ([1]; Schoenoplectiella juncoides, soil, 240 h, 1 g/a, 2.3 to 2.6 leaf stage, 10 days after application, read-out: Growth inhibition rate (%) Observed): 10%

Structure (SMILES): CCS(=O)(=O)Oc1ccc2c(c1)C(C)(C)CO2 [Compound (B8.1), benfuresate]
- inhibition at 600 g/ha [1, 6]: 90%
- inhibition at 900 g/ha [1, 6]: 89%
- inhibition at 1200 g/ha [1, 6]: 89%
- inhibition at 1200 g/ha [2]: 70%

Structure (SMILES): COCC(=O)OC(c1ncccc1S(=O)(=O)NC(=O)Nc1nc(OC)cc(OC)n1)C(C)F (stereo not shown) [Compound A2, flucetosulfuron]
- Growth inhibition rate (%) Observed ([1]; 0.025 g/a, 2 leaf stage, 19 days after application, Test Example 33): 43%
- Growth inhibition rate (%) Observed ([1]; 0.025 g/a, 2.3 to 2.6 leaf stage, 10 days after application): 27%
- Growth inhibition rate (%) Observed ([1]; 0.05 g/a, 2 leaf stage, 19 days after application, Test Example 33): 70%
- Growth inhibition rate (%) Observed ([1]; 0.05 g/a, 2.3 to 2.6 leaf stage, 10 days after application): 40%
- Growth inhibition rate (%) Observed ([1]; 0.075 g/a, 2.6 to 3.1 leaf stage, 22 days after application, Test Examples 50, 58): 94%
- Growth inhibition rate (%) Observed ([1]; 0.1 g/a, 2.3 to 2.6 leaf stage, 10 days after application): 63%
- Growth inhibition rate (%) Observed ([1]; 0.125 g/a, 2 leaf stage, 19 days after application, Test Example 34): 50%
- Growth inhibition rate (%) Observed ([1]; 0.15 g/a, 2.6 to 3.1 leaf stage, 22 days after application, Test Examples 50, 58): 93%
- Growth inhibition rate (%) Observed ([1]; 0.167 g/a, 2 leaf stage, 19 days after application, Test Example 34): 79%
- Growth inhibition rate (%) Observed ([1]; 0.22 g/a, 2.2 to 2.8 leaf stage, 29 days after application, Test Example 44): 87%
- Growth inhibition rate (%) Observed ([1]; 1.5 g/a, 2 leaf stage, 19 days after application, Test Example 34): 87%
- Growth inhibition rate (%) Observed ([1]; 8.3 g/ha, 3 leaf stage, 19 days after application, Test Example 37): 70%
- Growth inhibition rate (%) Observed ([3]; false pimpernel one leaf-pair stage, 21 days after application): 90%
- Growth inhibition rate (%) Observed ([3]; false pimpernel two leaf-pair stage, 22 days after application): 65%
- Growth inhibition rate (%) (average) 7 days ([4]; 7 days after application): 23%
- Growth inhibition rate (%) (average) 21 days ([4]; 21 days after application): 33%
- Growth inhibition rate (%) Observed ([5]; 0.083 g/a): 23%
- Growth inhibition rate (%) Observed ([5]; 0.11 g/a): 50%
- Growth inhibition rate (%) Observed ([5]; 0.165 g/a): 60%
